Measured values from the supplement of paper PMC11061612.

Tests used:
Dasatinib = compound: CC1=C(C(=CC=C1)Cl)NC(=O)C2=CN=C(S2)NC3=CC(=NC(=N3)C)N4CCN(CC4)CCO [Dasatinib]; settings: max 2 µM
How it was run: (§1)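 After 24 hours at 37°C and 5% CO2 in 1536-well plates holding 7.5 μl of DMEM/F12 or RPMI with 10% FBS, cancer cell lines were dosed for 72 hours, with final DMSO typically 0.2%. Viability came from CellTiter-Glo 2.0 luminescence, scaled between the means of blank wells and DMSO wells. A non-linear mixed effects model fitted a two-parameter logistic curve to each dose response to give the single-agent IC50.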

Venetoclax = compound: CC1(C)CCC(CN2CCN(c3ccc(C(=O)NS(=O)(=O)c4ccc(NCC5CCOCC5)c([N+](=O)[O-])c4)c(Oc4cnc5[nH]ccc5c4)c3)CC2)=C(c2ccc(Cl)cc2)C1 [Venetoclax]; settings: max 1 µM
How it was run: as §1

AZD2811 = compound: CCN(CCO)CCCOc1ccc2c(Nc3cc(CC(=O)Nc4cccc(F)c4)[nH]n3)ncnc2c1 [AZD2811]; settings: max 1 µM
How it was run: as §1

Lapatinib = compound: CS(=O)(=O)CCNCc1ccc(-c2ccc3ncnc(Nc4ccc(OCc5cccc(F)c5)c(Cl)c4)c3c2)o1 [Lapatinib]; settings: max 10 µM
How it was run: as §1

Taselisib = compound: Cc1nc(-c2cn3c(n2)-c2ccc(-c4cnn(C(C)(C)C(N)=O)c4)cc2OCC3)n(C(C)C)n1 [Taselisib]; settings: max 10 µM
How it was run: as §1

Gefitinib = compound: COc1cc2ncnc(Nc3ccc(F)c(Cl)c3)c2cc1OCCCN1CCOCC1 [Gefitinib]; settings: max 10 µM
How it was run: as §1

AZD6738 = compound: C[C@@H]1COCCN1C2=NC(=NC(=C2)C3(CC3)[S@](=N)(=O)C)C4=C5C=CNC5=NC=C4 [AZD6738]; settings: max 10 µM
How it was run: as §1

Trametinib = compound: CC(=O)Nc1cccc(-n2c(=O)n(C3CC3)c(=O)c3c(Nc4ccc(I)cc4F)n(C)c(=O)c(C)c32)c1 [Trametinib]; settings: max 1 µM
How it was run: as §1

SG3199 = compound: CC1=CN2[C@@H](C1)C=NC3=CC(=C(C=C3C2=O)OC)OCCCCCOC4=C(C=C5C(=C4)N=C[C@@H]6CC(=CN6C5=O)C)OC [SG3199]; settings: max 0.001 µM
How it was run: as §1

AZD5153 = compound: COc1nnc2ccc(N3CCC(c4ccc(OCCN5CCN(C)C(=O)[C@H]5C)cc4)CC3)nn12 [AZD5153]; settings: max 1 µM
How it was run: as §1

Doxorubicin = compound: COc1cccc2c1C(=O)c1c(O)c3c(c(O)c1C2=O)C[C@@](O)(C(=O)CO)C[C@@H]3O[C@H]1C[C@H](N)[C@H](O)[C@H](C)O1 [Doxorubicin]; settings: max 1 µM
How it was run: as §1

Savolitinib = compound: C[C@@H](c1ccc2nccn2c1)n1nnc2ncc(-c3cnn(C)c3)nc21 [Savolitinib]; settings: max 1 µM
How it was run: as §1

AZD1775 = compound: C=CCn1c(=O)c2cnc(Nc3ccc(N4CCN(C)CC4)cc3)nc2n1-c1cccc(C(C)(C)O)n1 [AZD1775]; settings: max 3 µM
How it was run: as §1

Selumetinib = compound: Cn1cnc2c(F)c(Nc3ccc(Br)cc3Cl)c(C(=O)NOCCO)cc21 [Selumetinib]; settings: max 10 µM
How it was run: as §1

SN-38 = compound: CCc1c2c(nc3ccc(O)cc13)-c1cc3c(c(=O)n1C2)COC(=O)[C@]3(O)CC [SN-38]; settings: max 0.3 µM
How it was run: as §1

Palbociclib = compound: CC(=O)c1c(C)c2cnc(Nc3ccc(N4CCNCC4)cn3)nc2n(C2CCCC2)c1=O [Palbociclib]; settings: max 10 µM
How it was run: as §1

Olaparib = compound: O=C(c1cc(Cc2n[nH]c(=O)c3ccccc23)ccc1F)N1CCN(C(=O)C2CC2)CC1 [Olaparib]
How it was run: as §1

Prexasertib = compound: COc1cccc(OCCCN)c1-c1cc(Nc2cnc(C#N)cn2)n[nH]1 [Prexasertib]; settings: max 1 µM
How it was run: as §1

Alisertib = compound: COc1cc(Nc2ncc3c(n2)-c2ccc(Cl)cc2C(c2c(F)cccc2OC)=NC3)ccc1C(=O)O [Alisertib]; settings: max 10 µM
How it was run: as §1

AZD5991 = compound: Cc1c2c(nn1C)CSCc1cc(n(C)n1)CSc1cc(c3ccccc3c1)OCCCc1c(C(=O)O)n(C)c3c-2c(Cl)ccc13 [AZD5991]; settings: max 1 µM
How it was run: as §1

AZD1390 = compound: CC(C)n1c(=O)n(C)c2cnc3cc(F)c(-c4ccc(OCCCN5CCCCC5)nc4)cc3c21 [AZD1390]; settings: max 0.3 µM
How it was run: as §1

AZD7648 = compound: Cc1cc2ncnn2cc1Nc1ncc2c(n1)n(C1CCOCC1)c(=O)n2C [AZD7648]; settings: max 10 µM
How it was run: as §1

AZD8186 = compound: C[C@@H](Nc1cc(F)cc(F)c1)c1cc(C(=O)N(C)C)cc2c(=O)cc(N3CCOCC3)oc12 [AZD8186]; settings: max 3 µM
How it was run: as §1

Capivasertib = compound: C1CN(CCC1(C(=O)N[C@@H](CCO)C2=CC=C(C=C2)Cl)N)C3=NC=NC4=C3C=CN4 [Capivasertib]; settings: max 10 µM
How it was run: as §1

AZD0156 = compound: CN(C)CCCOc1ccc(-c2ccc3ncc4c(c3c2)n(C2CCOCC2)c(=O)n4C)cn1 [AZD0156]; settings: max 3 µM
How it was run: as §1

AZD4320 = compound: CN(CC[C@H](CSC1=CC=CC=C1)NC2=C(C=C(C=C2)S(=O)(=O)NC(=O)C3=CC=C(C=C3)N4CCC(CC4)[C@H](C5=CC=CC=C5C6=CC=C(C=C6)Cl)O)S(=O)(=O)C(F)(F)F)CCO [AZD4320]; settings: max 1 µM
How it was run: as §1

Crizotinib = compound: C[C@@H](Oc1cc(-c2cnn(C3CCNCC3)c2)cnc1N)c1c(Cl)ccc(F)c1Cl [Crizotinib]; settings: max 10 µM
How it was run: as §1

Row | Cell Line | IC50, cell viability 72 h (Dasatinib) | IC50, cell viability 72 h (Venetoclax) | IC50, cell viability 72 h (AZD2811) | IC50, cell viability 72 h (Lapatinib) | IC50, cell viability 72 h (Taselisib) | IC50, cell viability 72 h (Gefitinib) | IC50, cell viability 72 h (AZD6738) | IC50, cell viability 72 h (Trametinib) | IC50, cell viability 72 h (SG3199) | IC50, cell viability 72 h (AZD5153) | IC50, cell viability 72 h (Doxorubicin) | IC50, cell viability 72 h (Savolitinib) | IC50, cell viability 72 h (AZD1775) | IC50, cell viability 72 h (Selumetinib) | IC50, cell viability 72 h (SN-38) | IC50, cell viability 72 h (Palbociclib) | IC50, cell viability 72 h (Olaparib; max 10 µM) | IC50, cell viability 72 h (Prexasertib) | IC50, cell viability 72 h (Alisertib) | IC50, cell viability 72 h (AZD5991) | IC50, cell viability 72 h (AZD1390) | IC50, cell viability 72 h (AZD7648) | IC50, cell viability 72 h (AZD8186) | IC50, cell viability 72 h (Capivasertib) | IC50, cell viability 72 h (AZD0156) | IC50, cell viability 72 h (AZD4320) | IC50, cell viability 72 h (Crizotinib) | IC50, cell viability 72 h (Olaparib; max 3 µM)
1 | GOTO (Neuroblastoma) | > 2000 nM | > 1000 nM | 332 nM | 6070 nM | 4550 nM | > 10000 nM | 592 nM | > 1000 nM | > 1 nM | 91.7 nM | 193 nM | > 1000 nM | 650 nM | > 10000 nM | 3.91 nM | 7010 nM | > 10000 nM | 11.8 nM | 272 nM | 398 nM | > 300 nM | > 10000 nM | > 3000 nM | > 10000 nM | > 3000 nM | > 1000 nM | 1640 nM | –
2 | HC-1 (Other Blood Carcinomas) | 1680 nM | > 1000 nM | 884 nM | > 10000 nM | 2640 nM | > 10000 nM | 4320 nM | > 1000 nM | > 1 nM | 858 nM | 151 nM | > 1000 nM | 187 nM | > 10000 nM | 4.53 nM | 9650 nM | > 10000 nM | 6.96 nM | 752 nM | > 1000 nM | > 300 nM | > 10000 nM | > 3000 nM | > 10000 nM | > 3000 nM | 793 nM | > 10000 nM | –
3 | HuP-T3 (Pancreatic Carcinoma) | 791 nM | > 1000 nM | > 1000 nM | > 10000 nM | > 10000 nM | > 10000 nM | > 10000 nM | 567 nM | > 1 nM | > 1000 nM | > 1000 nM | > 1000 nM | 1610 nM | > 10000 nM | 235 nM | > 10000 nM | > 10000 nM | 166 nM | > 10000 nM | > 1000 nM | > 300 nM | > 10000 nM | > 3000 nM | > 10000 nM | > 3000 nM | > 1000 nM | > 10000 nM | –
4 | IMR-5 (Neuroblastoma) | > 2000 nM | > 1000 nM | 18.2 nM | > 10000 nM | > 10000 nM | > 10000 nM | 2190 nM | > 1000 nM | > 1 nM | 69.6 nM | 64.9 nM | > 1000 nM | 498 nM | > 10000 nM | 1.9 nM | 6630 nM | > 10000 nM | 13.6 nM | 18.3 nM | 107 nM | > 300 nM | > 10000 nM | > 3000 nM | > 10000 nM | > 3000 nM | 546 nM | 2210 nM | –
5 | KLE (Endometrial Carcinoma) | 186 nM | > 1000 nM | > 1000 nM | > 10000 nM | 2430 nM | > 10000 nM | > 10000 nM | > 1000 nM | > 1 nM | 315 nM | > 1000 nM | > 1000 nM | 1800 nM | > 10000 nM | > 300 nM | > 10000 nM | > 10000 nM | > 1000 nM | 9070 nM | > 1000 nM | > 300 nM | > 10000 nM | > 3000 nM | > 10000 nM | > 3000 nM | > 1000 nM | > 10000 nM | –
6 | KP-2 (Pancreatic Carcinoma) | > 2000 nM | > 1000 nM | > 1000 nM | > 10000 nM | > 10000 nM | > 10000 nM | > 10000 nM | 778 nM | > 1 nM | > 1000 nM | > 1000 nM | > 1000 nM | > 3000 nM | 8020 nM | > 300 nM | > 10000 nM | > 10000 nM | 867 nM | > 10000 nM | > 1000 nM | > 300 nM | > 10000 nM | > 3000 nM | > 10000 nM | > 3000 nM | 238 nM | > 10000 nM | –
7 | NH-12 (Neuroblastoma) | > 2000 nM | 576 nM | 509 nM | > 10000 nM | 1250 nM | > 10000 nM | 2370 nM | 105 nM | > 1 nM | 625 nM | 157 nM | > 1000 nM | – | > 10000 nM | 4.09 nM | > 10000 nM | > 10000 nM | 17.3 nM | 68.8 nM | > 1000 nM | > 300 nM | > 10000 nM | > 3000 nM | > 10000 nM | > 3000 nM | 79.3 nM | 3020 nM | –
8 | U-87-MG (Glioblastoma) | > 2000 nM | > 1000 nM | > 1000 nM | > 10000 nM | 2450 nM | > 10000 nM | > 10000 nM | > 1000 nM | – | > 1000 nM | – | > 1000 nM | > 3000 nM | > 10000 nM | 40.5 nM | > 10000 nM | – | > 1000 nM | > 10000 nM | > 1000 nM | > 300 nM | > 10000 nM | 2450 nM | > 10000 nM | > 3000 nM | > 1000 nM | > 10000 nM | > 3000 nM
